According to patent US9890171B2, “Aldosterone synthase inhibitors” (Boehringer Ingelheim International GmbH, priority 2014, dated 2018):

What follows are compounds tested against aldosterone synthase (CYP11B2) (Macaca fascicularis, UniProt A0A2K5UPL9) (assay: aldosterone synthase inhibition assay). Details: cynomolgus adrenal gland mitochondria, 2 μM corticosterone, aldosterone quantified by mass spectrometry.
Assay type: biochemical, cynomolgus monkey
Experimental: The aldosterone synthase inhibition assay employs cynomolgus adrenal gland mitochondria as the source of aldosterone synthase (CYP11B2). Mitochondria are prepared from frozen cynomolgus monkey adrenal glands according to Method A described in by J. D. McGarry et al. (Biochem. J., 1983, 214, 21-28), with a final resuspension in the AT buffer described in R. Yamaguchi et al. (Cell Death and Differentiation, 2007, 14, 616-624), frozen as aliquots in liquid nitrogen and stored at −80° C. until use.
Assays are performed in 96-well format in a final volume of 60 μL/well, containing 100 mM potassium phosphate, pH 7.4, 1% (v/v) DMSO, and additionally, 2 μM of corticosterone and […] of mitochondrial protein. Reactions are started by the addition of NADPH to 1 mM and allowed to proceed for 60-90 minutes at 37° C. Reactions are terminated by the addition of […]. One hundred microliters are then transferred to a glass filter plate and centrifuged at 570×g for 5 minutes and the filtrate is collected. Reaction product aldosterone is quantified by mass spectrometry. To determine the assay blank value (0% activity), NADPH is omitted from some reactions.
Dose dependent inhibition is quantified by the inclusion of compound at various concentrations. Maximum activity (100%) is defined by reactions containing NADPH, but without compound. Activities at each concentration are expressed as a percentage of the maximum activity (y-axis) and plotted against concentration of compound (x-axis) and the concentration corresponding to 50% activity (IC50) determined using the XLFit curve-fitting program using a 4-parameter logistic model.

Sequence of aldosterone synthase (CYP11B2) (A0A2K5UPL9 1-503): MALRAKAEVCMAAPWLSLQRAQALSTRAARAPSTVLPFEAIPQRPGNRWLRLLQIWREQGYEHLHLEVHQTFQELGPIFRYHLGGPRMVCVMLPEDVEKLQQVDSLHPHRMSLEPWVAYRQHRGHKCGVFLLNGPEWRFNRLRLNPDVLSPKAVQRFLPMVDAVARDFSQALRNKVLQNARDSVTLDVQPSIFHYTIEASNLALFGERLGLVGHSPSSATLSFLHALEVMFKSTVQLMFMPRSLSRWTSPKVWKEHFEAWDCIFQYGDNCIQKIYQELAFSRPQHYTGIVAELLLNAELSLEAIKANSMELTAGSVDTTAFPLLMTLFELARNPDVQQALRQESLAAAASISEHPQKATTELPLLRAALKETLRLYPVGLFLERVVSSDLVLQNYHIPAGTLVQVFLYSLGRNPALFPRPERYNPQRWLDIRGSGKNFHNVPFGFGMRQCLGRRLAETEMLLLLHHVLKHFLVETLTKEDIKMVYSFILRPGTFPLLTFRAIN

In order of falling IC50:
1. Cn1cc2ccc(-c3cncc4c3COCC4O)cc2n1 (single isomer, unassigned) [Compound 50, 8-(2-Methyl-2H-indazol-6-yl)-3,4-dihydro-1H-pyrano[4,3-c]pyridin-4-ol]  1200 nM
2. Cc1c(-c2cncc3c2COCC3O)cnn1C (single isomer, unassigned) [Compound 41, 8-(1,5-Dimethyl-1H-pyrazol-4-yl)-3,4-dihydro-1H-pyrano[4,3-c]pyridin-4-ol]  1000 nM
3. CCS(=O)(=O)NC1COCc2c(-c3ccc4c(C)n[nH]c4c3)cncc21 (single isomer, unassigned) [Compound 66, Ethanesulfonic acid [8-(3-methyl-1H-indazol-6-yl)-3,4-dihydro-1H-pyrano[4,3-c]pyridin-4-yl]-amide]  1000 nM
4. OC1COCc2c(-c3ccc4ocnc4c3)cncc21 (single isomer, unassigned) [Compound 53, 8-Benzooxazol-5-yl-3,4-dihydro-1H-pyrano[4,3-c]pyridin-4-ol]  808 nM
5. CCS(=O)(=O)NC1COCc2c(-c3ccc4c(c3)CC(=O)N4)cncc21 (single isomer, unassigned) [Compound 64, Ethanesulfonic acid [8-(2-oxo-2,3-dihydro-1H-indol-5-yl)-3,4-dihydro-1H-pyrano[4,3-c]pyridin-4-yl]-amide]  611 nM
6. Cc1nn(C)c(C)c1-c1cncc2c1COCC2O (single isomer, unassigned) [Compound 39, 8-(1,3,5-Trimethyl-1H-pyrazol-4-yl)-3,4-dihydro-1H-pyrano[4,3-c]pyridin-4-ol]  437 nM
7. Cn1nc(C(F)(F)F)cc1-c1cncc2c1COCC2O (single isomer, unassigned) [Compound 42, 8-(2-Methyl-5-trifluoromethyl-2H-pyrazol-3-yl)-3,4-dihydro-1H-pyrano[4,3-c]pyridin-4-ol]  367 nM
8. OC1COCc2c(-c3cnn(C4CC4)c3)cncc21 (single isomer, unassigned) [Compound 46, 8-(1-Cyclopropyl-1H-pyrazol-4-yl)-3,4-dihydro-1H-pyrano[4,3-c]pyridin-4-ol]  302 nM
9. CCC(=O)NC1COCc2c(-c3ccc4ncn(C)c4c3)cncc21 (single isomer, unassigned) [Compound 57, N-[8-(3-Methyl-3H-benzoimidazol-5-yl)-3,4-dihydro-1H-pyrano[4,3-c]pyridin-4-yl]-propionamide]  219 nM
10. OC1COCc2c(-c3cnc4[nH]ccc4c3)cncc21 (single isomer, unassigned) [Compound 40, 8-(1H-Pyrrolo[2,3-b]pyridin-5-yl)-3,4-dihydro-1H-pyrano[4,3-c]pyridin-4-ol]  186 nM
11. CCC(=O)NC1COCc2c(-c3ccc4c(c3)CC(=O)N4)cncc21 (single isomer, unassigned) [Compound 59, N-[8-(2-Oxo-2,3-dihydro-1H-indol-5-yl)-3,4-dihydro-1H-pyrano[4,3-c]pyridin-4-yl]-propionamide]  179 nM
12. Cc1cc2cnn(C)c2cc1-c1cncc2c1COCC2N (single isomer, unassigned) [Compound 70, 8-(1,5-Dimethyl-1H-indazol-6-yl)-3,4-dihydro-1H-pyrano[4,3-c]pyridin-4-ylamine]  166 nM
13. CN1C(=O)Cc2cc(-c3cncc4c3COCC4O)ccc21 (single isomer, unassigned) [Compound 54, 5-(4-Hydroxy-3,4-dihydro-1H-pyrano[4,3-c]pyridin-8-yl)-1-methyl-1,3-dihydro-indol-2-one]  149 nM
14. CCC(=O)NC1COCc2c(-c3ccc4c(C)n[nH]c4c3)cncc21 (single isomer, unassigned) [Compound 62, N-[8-(3-Methyl-1H-indazol-6-yl)-3,4-dihydro-1H-pyrano[4,3-c]pyridin-4-yl]-propionamide]  139 nM
15. CCC(=O)NC1COCc2c(-c3ccc4c(c3)CC(=O)N4C)cncc21 (single isomer, unassigned) [Compound 58, N-[8-(1-Methyl-2-oxo-2,3-dihydro-1H-indol-5-yl)-3,4-dihydro-1H-pyrano[4,3-c]pyridin-4-yl]-propionamide]  130 nM
16. CCS(=O)(=O)NC1COCc2c(-c3ccc4ncn(C)c4c3)cncc21 (single isomer, unassigned) [Compound 67, Ethanesulfonic acid [8-(3-methyl-3H-benzoimidazol-5-yl)-3,4-dihydro-1H-pyrano[4,3-c]pyridin-4-yl]-amide]  110 nM
17. CCC(=O)NC1COCc2c(-c3ccc4ocnc4c3)cncc21 (single isomer, unassigned) [Compound 56, N-(8-Benzooxazol-5-yl-3,4-dihydro-1H-pyrano[4,3-c]pyridin-4-yl)-propionamide]  85.8 nM
18. CCS(=O)(=O)NC1COCc2c(-c3ccc4c(c3)CC(=O)N4C)cncc21 (single isomer, unassigned) [Compound 63, Ethanesulfonic acid [8-(1-methyl-2-oxo-2,3-dihydro-1H-indol-5-yl)-3,4-dihydro-1H-pyrano[4,3-c]pyridin-4-yl]-amide]  85.2 nM
19. CCS(=O)(=O)NC1COCc2c(-c3ccc4[nH]nc(C)c4c3)cncc21 (single isomer, unassigned) [Compound 69, Ethanesulfonic acid [8-(3-methyl-1H-indazol-5-yl)-3,4-dihydro-1H-pyrano[4,3-c]pyridin-4-yl]-amide]  84.6 nM
20. CCC(=O)NC1COCc2c(-c3ccc4nnn(C)c4c3)cncc21 (single isomer, unassigned) [Compound 60, N-[8-(3-Methyl-3H-benzotriazol-5-yl)-3,4-dihydro-1H-pyrano[4,3-c]pyridin-4-yl]-propionamide]  75.5 nM
21. O=C1Cc2cc(-c3cncc4c3COCC4O)ccc2N1 (single isomer, unassigned) [Compound 52, 5-(4-Hydroxy-3,4-dihydro-1H-pyrano[4,3-c]pyridin-8-yl)-1,3-dihydro-indol-2-one]  64.1 nM
22. OC1COCc2c(-c3ccc4ocnc4c3)cncc21 (single isomer, unassigned) [Compound 49, 8-Benzooxazol-5-yl-3,4-dihydro-1H-pyrano[4,3-c]pyridin-4-ol]  55.7 nM
23. OC1COCc2c(-c3ccc4[nH]ncc4c3)cncc21 (single isomer, unassigned) [Compound 47, 8-(1H-Indazol-5-yl)-3,4-dihydro-1H-pyrano[4,3-c]pyridin-4-ol]  50 nM
24. CCC(=O)NC1COCc2c(-c3ccc4[nH]nc(C)c4c3)cncc21 (single isomer, unassigned) [Compound 61, N-[8-(3-Methyl-1H-indazol-5-yl)-3,4-dihydro-1H-pyrano[4,3-c]pyridin-4-yl]-propionamide]  36.2 nM
25. CCS(=O)(=O)NC1COCc2c(-c3ccc4nnn(C)c4c3)cncc21 (single isomer, unassigned) [Compound 65, Ethanesulfonic acid [8-(3-methyl-3H-benzotriazol-5-yl)-3,4-dihydro-1H-pyrano[4,3-c]pyridin-4-yl]-amide]  36.1 nM
26. CN1C(=O)Cc2cc(-c3cncc4c3COCC4O)ccc21 (single isomer, unassigned) [Compound 51, 5-(4-Hydroxy-3,4-dihydro-1H-pyrano[4,3-c]pyridin-8-yl)-1-methyl-1,3-dihydro-indol-2-one]  24.2 nM
27. Cn1ncc2ccc(-c3cncc4c3COCC4N)cc21 (single isomer, unassigned) [Compound 71, 8-(1-Methyl-1H-indazol-6-yl)-3,4-dihydro-1H-pyrano[4,3-c]pyridin-4-ylamine]  22.2 nM
28. OC1COCc2c(-c3ccc4c(c3)OCCCO4)cncc21 (single isomer, unassigned) [Compound 43, 8-(3,4-Dihydro-2H-benzo[b][1,4]dioxepin-7-yl)-3,4-dihydro-1H-pyrano[4,3-c]pyridin-4-ol]  22 nM
29. OC1COCc2c(-c3ccc4[nH]ccc4c3)cncc21 (single isomer, unassigned) [Compound 48, 8-(1H-Indol-5-yl)-3,4-dihydro-1H-pyrano[4,3-c]pyridin-4-ol]  17.4 nM
30. CCS(=O)(=O)NC1COCc2c(-c3ccc4c(F)nn(C)c4c3)cncc21 (single isomer, unassigned) [Compound 68, Ethanesulfonic acid [8-(3-fluoro-1-methyl-1H-indazol-6-yl)-3,4-dihydro-1H-pyrano[4,3-c]pyridin-4-yl]-amide]  15.9 nM
31. Cn1ncc2ccc(-c3cncc4c3COCC4O)cc21 (single isomer, unassigned) [Compound 44, 8-(1-Methyl-1H-indazol-6-yl)-3,4-dihydro-1H-pyrano[4,3-c]pyridin-4-ol]  8.5 nM
32. Cn1nc(F)c2ccc(-c3cncc4c3COCC4O)cc21 (single isomer, unassigned) [Compound 55, 8-(3-Fluoro-1-methyl-1H-indazol-6-yl)-3,4-dihydro-1H-pyrano[4,3-c]pyridin-4-ol]  7.6 nM
33. OC1COCc2c(-c3ccc4cnccc4c3)cncc21 (single isomer, unassigned) [Compound 45, 8-Isoquinolin-6-yl-3,4-dihydro-1H-pyrano[4,3-c]pyridin-4-ol]  5.8 nM
